PubChem BioAssay AID1963839 (Molecular Pharmacology Branch, DTP, NCI, 2024)

Test system: 817829-284-R-J1-PDC complex spheroid viability
Assay: Anticancer human tumor 817829-284-R-J1-PDC patient-derived colon adenocarcinoma cell line growth inhibition [POLQ]
Details: for IC50: curve of first compound; for viability, T/C: stronger effect = lower value
Experimental: Multicellular complex tumor spheroid response to Polymerase (POL) inhibitors (novobiocin, ART-558, RP6685) in combination with a variety of drugs and investigational agents in selected tumor cell lines
The POL inhibitors (novobiocin, ART-558, and RP6685) were evaluated both individually and in combination with standard of care and investigational anticancer small molecules within a complex spheroid model of solid tumors. . Complex spheroids include a stromal component modeled by human endothelial cells (HUVEC) and fibroblasts modeled by human mesenchymal stem cells (MSCs). The concentration ranges selected for each drug and investigational agent were based upon clinically achievable concentrations if the clinical Cmax of the agent was known.
Compounds. The drugs and investigational agents: novobiocin (NSC847541), ART-558 (NSC835418), RP-6685 (NSC848927), peposertib (NSC802822), ceralasertib (NSC780249), elimusertib (NSC800525), camonsertib (NSC841442), AZD-1390 (NSC803789), olaparib (NSC753686), talazoparib (NSC767125), rucaparib (NSC756644), sotorasib (NSC818433), MRTX-1133 (NSC836407), SN-38 (NSC673596), topotecan (NSC609699), epotoside (NSC141540), doxorubicin (NSC123127), gemcitabine (NSC613327), 5-fluorouracil (NSC19893), paclitaxel (NSC125973), vemurafenib (NSC761431), MSA-2 (NSC828583), SN-011 (NSC837082), adavosertib (NSC754352), prexasertib (NSC758257), carboplatin (NSC241240) and oxaliplatin (NSC266046), were obtained from the National Cancer Institute (NCI) Developmental Therapeutics Program Chemical Repository (21). The FDA-approved anticancer drug set is available from the Developmental Therapeutics Program at https://dtp.cancer.gov/organization/dscb/obtaining/. […] The stock solutions were prepared in dimethyl sulfoxide (DMSO, Sigma-Aldrich, St. Louis, MO, cat. D2650), except for the platinum compounds which were prepared in saline (Quality Biological, Gaithersburg, MD, cat. 114-055-101), at 800-fold the tested concentration and stored at -70 degrees C prior to their use. All drugs and investigational agents were tested over a range starting from a high concentration at or near the clinical Cmax and decreasing in half-log increments. If the clinical Cmax for an agent had not been determined, the highest concentration tested was 10 microM, except for SN-38, which was tested at a high concentration of 1 microM.
Cell Culture. All cells were maintained in an incubator at 37 degrees C and 5% CO2 with 95% humidity. The PDC lines were cultured according to standard operating procedures established by the NCI PDMR (https://pdmr.cancer.gov). Table 3 of the manuscript, lists the cell lines along with the number of the three cell types plated to form the mct-spheroids and media for tumor cell growth. After thawing, all PDC lines, except 997537-175-T-J1-PDC and 415267-285-R-J2-PDC, were cultured in Matrigel-coated flasks prepared with a working solution of 1X Ham's F-12 nutrient mix, without supplementation (Thermo Fisher Scientific, cat. 11765054), 100 U/mL penicillin-streptomycin (Thermo Fisher Scientific, cat. 15140122), and 2.5% Matrigel (Corning Inc., Corning, NY, cat. 354248) for the first three passages. The two PDC lines 997537-175-T-J1-PDC and 415267-285-R-J2-PDC were cultured on uncoated flasks. The 857933-349-R-J2-PDC line was cultured in 6C/Colon 1B media containing advanced DMEM/F-12 (Thermo Fisher Scientific, cat. 12634028), 10 mM HEPES (Thermo Fisher Scientific, cat. 15630080), 1X GlutaMAX supplement (Thermo Fisher Scientific, cat. 35050061), 0.1 mg/mL primocin (InvivoGen, San Diego, CA, cat. ant-pm-2), 10% defined fetal bovine serum, heat inactivated (HyClone Laboratories Inc., Logan, UT, cat. SH30070.03HI), 50% L-WRN conditioned media (ATCC, cat. CRL-3276), 1.25 mM N-Acetyl-L-cysteine (Sigma-Aldrich, cat. A9165), 10 mM nicotinamide (Sigma-Aldrich, cat. N0636), 1X B-27 supplement (Thermo Fisher Scientific, cat. 17504044), 1X N-2 supplement (Thermo Fisher Scientific, cat. […]

[1] = second compound 0.0316 µM, first compound 0.0316 µM
[2] = second compound 0.0316 µM, first compound 0.1 µM
[3] = second compound 0.0316 µM, first compound 0.316 µM
[4] = second compound 0.0316 µM, first compound 1 µM
[5] = second compound 0.0316 µM, first compound 3.16 µM
[6] = second compound 0.0316 µM, first compound 10 µM
[7] = second compound 0.1 µM, first compound 0.0316 µM
[8] = second compound 0.1 µM, first compound 0.1 µM
[9] = second compound 0.1 µM, first compound 0.316 µM
[10] = second compound 0.1 µM, first compound 1 µM
[11] = second compound 0.1 µM, first compound 3.16 µM
[12] = second compound 0.1 µM, first compound 10 µM
[13] = second compound 0.316 µM, first compound 0.0316 µM
[14] = second compound 0.316 µM, first compound 0.1 µM
[15] = second compound 0.316 µM, first compound 0.316 µM
[16] = second compound 0.316 µM, first compound 1 µM
[17] = second compound 0.316 µM, first compound 3.16 µM
[18] = second compound 0.316 µM, first compound 10 µM
[19] = second compound 1 µM, first compound 0.0316 µM
[20] = second compound 1 µM, first compound 0.1 µM
[21] = second compound 1 µM, first compound 0.316 µM
[22] = second compound 1 µM, first compound 1 µM
[23] = second compound 1 µM, first compound 3.16 µM
[24] = second compound 1 µM, first compound 10 µM
[25] = second compound 3.16 µM, first compound 0.0316 µM
[26] = second compound 3.16 µM, first compound 0.1 µM
[27] = second compound 3.16 µM, first compound 0.316 µM
[28] = second compound 3.16 µM, first compound 1 µM
[29] = second compound 3.16 µM, first compound 3.16 µM
[30] = second compound 3.16 µM, first compound 10 µM
[31] = second compound 10 µM, first compound 0.0316 µM
[32] = second compound 10 µM, first compound 0.1 µM
[33] = second compound 10 µM, first compound 0.316 µM
[34] = second compound 10 µM, first compound 1 µM
[35] = second compound 10 µM, first compound 3.16 µM
[36] = second compound 10 µM, first compound 10 µM
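Also: spheroids exposed to compounds for 7 days.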
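For viability, T/C in this document: 100% = DMSO vehicle-treated spheroids.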

Compound: CC1COCCN1c1cc(C2(O)CC3CCC(C2)O3)c2cnn(-c3ccn[nH]3)c2n1 (centres undefined) + Cc1cccc(N(C)C(=O)C2C(O)CCN2c2nc(C)cc(C(F)(F)F)c2C#N)c1
- IC50 (second compound 0.0316 µM): < 0.0316 µM
- IC50 (second compound 0.1 µM): < 0.0316 µM
- IC50 (second compound 0.316 µM): < 0.0316 µM
- IC50 (second compound 1 µM): < 0.0316 µM
- IC50 (second compound 3.16 µM): < 0.0316 µM
- IC50 (second compound 10 µM): < 0.0316 µM
- viability, T/C [1]: 28.6%
- viability, T/C [2]: 10.7%
- viability, T/C [3]: 4.5%
- viability, T/C [4]: 3.59%
- viability, T/C [5]: 2.99%
- viability, T/C [6]: 2.26%
- viability, T/C [7]: 29.8%
- viability, T/C [8]: 11.4%
- viability, T/C [9]: 4.57%
- viability, T/C [10]: 3.83%
- viability, T/C [11]: 3.59%
- viability, T/C [12]: 2.95%
- viability, T/C [13]: 28.6%
- viability, T/C [14]: 9.76%
- viability, T/C [15]: 3.78%
- viability, T/C [16]: 3.72%
- viability, T/C [17]: 3.01%
- viability, T/C [18]: 1.9%
- viability, T/C [19]: 24.4%
- viability, T/C [20]: 9.97%
- viability, T/C [21]: 4.66%
- viability, T/C [22]: 4.17%
- viability, T/C [23]: 2.77%
- viability, T/C [24]: 2.21%
- viability, T/C [25]: 26.8%
- viability, T/C [26]: 9.02%
- viability, T/C [27]: 5.06%
- viability, T/C [28]: 3.24%
- viability, T/C [29]: 2.62%
- viability, T/C [30]: 2.27%
- viability, T/C [31]: 23%
- viability, T/C [32]: 10.3%
- viability, T/C [33]: 6.05%
- viability, T/C [34]: 3.31%
- viability, T/C [35]: 2.74%
- viability, T/C [36]: 2.44%

Compound: CCc1cc2c(N3CCc4c(cc(Cn5ccnc5)cc4-c4cn(C)nc4C(F)(F)F)C3=O)ccnc2c(OC)n1 + Cc1cccc(N(C)C(=O)C2C(O)CCN2c2nc(C)cc(C(F)(F)F)c2C#N)c1
- IC50 (second compound 0.0316 µM): 3.28 µM
- IC50 (second compound 0.1 µM): 4.18 µM
- IC50 (second compound 0.316 µM): 4.63 µM
- IC50 (second compound 1 µM): 2.77 µM
- IC50 (second compound 3.16 µM): 2.43 µM
- IC50 (second compound 10 µM): 1.57 µM
- viability, T/C [1]: 84%
- viability, T/C [2]: 73.8%
- viability, T/C [3]: 67.4%
- viability, T/C [4]: 64.2%
- viability, T/C [5]: 49.7%
- viability, T/C [6]: 38.4%
- viability, T/C [7]: 87.5%
- viability, T/C [8]: 96%
- viability, T/C [9]: 72.7%
- viability, T/C [10]: 77.2%
- viability, T/C [11]: 54.7%
- viability, T/C [12]: 31.2%
- viability, T/C [13]: 95.5%
- viability, T/C [14]: 87.9%
- viability, T/C [15]: 76.9%
- viability, T/C [16]: 73.8%
- viability, T/C [17]: 51.3%
- viability, T/C [18]: 41.1%
- viability, T/C [19]: 90.6%
- viability, T/C [20]: 82.2%
- viability, T/C [21]: 76.8%
- viability, T/C [22]: 65.4%
- viability, T/C [23]: 47.1%
- viability, T/C [24]: 29.3%
- viability, T/C [25]: 84.9%
- viability, T/C [26]: 94.9%
- viability, T/C [27]: 86.8%
- viability, T/C [28]: 61.1%
- viability, T/C [29]: 50.1%
- viability, T/C [30]: 32.8%
- viability, T/C [31]: 92.9%
- viability, T/C [32]: 71.8%
- viability, T/C [33]: 69.1%
- viability, T/C [34]: 56.8%
- viability, T/C [35]: 42.1%
- viability, T/C [36]: 30.5%
